Laboratory results published in patent US9151757B2, “Detecting antigen responsive cells in a sample” (Stichting Sanquin Bloedvoorziening, priority 2008, dated 2015).

Tested on: CD8+ T cells in PBMCs
Test: Combinatorial coding MHC multimer flow cytometry of enriched, in vitro expanded PBMCs
Format: cell-based, human
Details: enriched PBMCs from 27 HLA-A3 positive melanoma patients, after MACS enrichment and short term in vitro expansion

Row | Sequence | CD8+ T cell responses against peptide detected by dual color-encoded pMHC multimer staining
1 | GTYEGLLRR (listed as Homo sapiens) [Tyrp2 301-309, unknown HLA-A3 associated T cell antigen] | identification of the unknown HLA-A3 associated T cells antigens
2 | HAYIQSLLK (listed as Homo sapiens) | CD8^+ T cell responses were observed
3 | QLRALDGGNK (listed as Homo sapiens) | CD8^+ T cell responses were observed
4 | RMYNMVPFF (listed as Homo sapiens) | CD8^+ T cell responses were observed
5 | SLYRDPLPR (listed as Homo sapiens) | CD8^+ T cell responses were observed
